Reference: patent US20230130766A1 (SALK INSTITUTE FOR BIOLOGICAL STUDIES, priority 2020, published 2023)

Target: T1, ULK1 (Homo sapiens, UniProt O75385)
T1 sequence (O75385 1-1050): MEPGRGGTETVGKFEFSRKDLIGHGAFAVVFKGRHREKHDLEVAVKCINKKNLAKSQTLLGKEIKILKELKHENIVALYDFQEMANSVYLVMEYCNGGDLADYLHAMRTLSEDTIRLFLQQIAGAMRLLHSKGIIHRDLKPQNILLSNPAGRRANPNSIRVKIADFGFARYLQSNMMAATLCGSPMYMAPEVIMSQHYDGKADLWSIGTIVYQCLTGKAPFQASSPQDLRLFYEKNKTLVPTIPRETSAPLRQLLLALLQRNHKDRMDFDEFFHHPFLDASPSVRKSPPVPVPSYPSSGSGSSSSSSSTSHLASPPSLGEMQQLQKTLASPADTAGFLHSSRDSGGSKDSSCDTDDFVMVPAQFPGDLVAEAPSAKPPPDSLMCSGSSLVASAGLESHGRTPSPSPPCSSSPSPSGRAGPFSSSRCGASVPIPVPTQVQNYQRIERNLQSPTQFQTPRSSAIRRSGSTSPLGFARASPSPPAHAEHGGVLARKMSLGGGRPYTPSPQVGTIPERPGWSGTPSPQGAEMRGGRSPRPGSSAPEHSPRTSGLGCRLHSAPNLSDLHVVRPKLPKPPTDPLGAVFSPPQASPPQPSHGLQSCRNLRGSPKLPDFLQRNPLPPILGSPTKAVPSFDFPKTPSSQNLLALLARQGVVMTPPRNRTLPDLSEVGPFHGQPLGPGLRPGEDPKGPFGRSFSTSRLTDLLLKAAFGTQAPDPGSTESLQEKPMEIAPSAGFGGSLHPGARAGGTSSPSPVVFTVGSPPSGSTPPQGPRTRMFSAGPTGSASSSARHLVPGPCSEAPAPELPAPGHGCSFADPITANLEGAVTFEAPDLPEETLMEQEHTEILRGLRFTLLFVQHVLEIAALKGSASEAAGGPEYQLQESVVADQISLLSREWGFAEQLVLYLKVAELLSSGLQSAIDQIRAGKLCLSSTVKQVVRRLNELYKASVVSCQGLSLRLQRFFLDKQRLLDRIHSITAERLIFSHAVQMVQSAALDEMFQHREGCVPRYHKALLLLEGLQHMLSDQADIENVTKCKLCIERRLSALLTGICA
Assay: ULK1 inhibition assay
Assay type: biochemical
Settings: * = tested as a mixture of regioisomers

With `CNC(=O)c1ccccc1Oc1nc(Nc2cc(OC)ccc2OC)ncc1C(F)(F)F` [Compound 109a] the IC50 was > 2000 nM.
For `COc1ccc(OC)c(Nc2ncc(C(F)(F)F)c(O)n2)c1` [Compound 109b], the IC50 was > 2000 nM.
In the case of `CNC(=O)c1ccccc1Oc1nc(Nc2ccccc2)ncc1Br` [Compound 111], the IC50 is reported as > 2000 nM.
For `CNC(=O)c1ccccc1Oc1nc(Nc2cc(Br)ccc2C)ncc1Br` [Compound 112], the IC50 was > 2000 nM.
In the case of `CNC(=O)c1ccccc1Oc1nc(Nc2cccc(F)c2F)ncc1C(F)(F)F` [Compound 113], the IC50 is reported as > 2000 nM.
`Clc1cnc(Nc2ccccc2)nc1Nc1ccccc1` [Compound 114] was tested, and the IC50 was > 2000 nM.
For `CNC(=O)c1ccccc1Oc1nc(Nc2cccc(OC)c2OC)ncc1C(F)(F)F` [Compound 115a], the IC50 was > 2000 nM.
With `COc1cccc(Nc2ncc(C(F)(F)F)c(O)n2)c1OC` [Compound 115b] the IC50 was > 2000 nM.
For `CNC(=O)c1ccccc1Oc1nc(Nc2ccccc2SC)ncc1C(F)(F)F` [Compound 116a], the IC50 was > 2000 nM.
With `CSc1ccccc1Nc1ncc(C(F)(F)F)c(Nc2ccccc2SC)n1` [Compound 116b] the IC50 was > 2000 nM.
With `CNC(=O)c1ccccc1Sc1nc(Nc2cc(OC)ccc2C)ncc1C(F)(F)F` [Compound 117] the IC50 was > 2000 nM.
For `O=C1CCc2cc(Nc3ncc(C(F)(F)F)c(Nc4ccccc4N4CCOCC4)n3)ccc2N1` [Compound 118a], the IC50 was < 200 nM.
With `O=C1CCc2cc(Nc3nc(Nc4ccccc4N4CCOCC4)ncc3C(F)(F)F)ccc2N1` [Compound 118b] the IC50 was > 2000 nM.
In the case of `Oc1ncc(C(F)(F)F)c(Nc2ccccc2N2CCOCC2)n1` [Compound 118c], the IC50 is reported as > 2000 nM.
`COc1cccc(Nc2nc(Nc3ccc4c(c3)CCC(=O)N4)ncc2C(F)(F)F)c1` [Compound 119] was tested, and the IC50 was < 200 nM.
In the case of `O=C1CCc2cc(Nc3ncc(C(F)(F)F)c(Nc4ccccc4OC(F)F)n3)ccc2N1` [Compound 120a], the IC50 is reported as < 200 nM.
With `O=C1CCc2cc(Nc3ncc(C(F)(F)F)c(Nc4ccc5c(c4)CCC(=O)N5)n3)ccc2N1` [Compound 120c] the IC50 was < 200 nM.
`COc1cc(N2CCOCC2)ccc1Nc1nc(Nc2ccc3c(c2)CCC(=O)N3)ncc1C(F)(F)F` [Compound 123a] was tested, and the IC50 was < 200 nM.
In the case of `COc1cc(N2CCOCC2)ccc1Nc1ncc(C(F)(F)F)c(Nc2ccc3c(c2)CCC(=O)N3)n1` [Compound 123b], the IC50 is reported as < 200 nM.
`FC(F)(F)c1cnc(Nc2ccc3c(c2)OCO3)nc1Nc1ccc2c(c1)OCO2` [Compound 124c] was tested, and the IC50 was < 200 nM.
`Cc1ccc(Nc2nc(Nc3ccc4c(c3)CCC(=O)N4)ncc2C(F)(F)F)cc1C` [Compound 125] was tested, and the IC50 was < 200 nM.
`CNC(=O)c1cccc(Nc2nc(Nc3ccc4c(c3)CCC(=O)N4)ncc2C(F)(F)F)c1` [Compound 128] was tested, and the IC50 was < 200 nM.
With `O=C1CCc2cc(Nc3ncc(C(F)(F)F)c(Nc4ccc5c(c4)CCC5)n3)ccc2N1` [Compound 129] the IC50 was < 200 nM.
`O=C1CCc2cc(Nc3ncc(C(F)(F)F)c(NC4Cc5ccccc5C4)n3)ccc2N1` [Compound 130a] was tested, and the IC50 was < 200 nM.
With `O=C1CCc2cc(Nc3nc(NC4Cc5ccccc5C4)ncc3C(F)(F)F)ccc2N1` [Compound 130b] the IC50 was > 2000 nM.
In the case of `O=C1CCc2cc(Nc3ncc(C(F)(F)F)c(NC4CC4)n3)ccc2N1` [Compound 131a], the IC50 is reported as < 200 nM.
`O=C1CCc2cc(Nc3nc(NC4CC4)ncc3C(F)(F)F)ccc2N1` [Compound 131b] was tested, and the IC50 was < 200 nM.
In the case of `CC(=O)Nc1ccc(Nc2nc(Nc3ccc4c(c3)CCC(=O)N4)ncc2C(F)(F)F)cc1` [Compound 132], the IC50 is reported as < 200 nM.
With `COc1cccc(Nc2nc(Nc3ccc4c(c3)OCCO4)ncc2C(F)(F)F)c1` [Compound 133] the IC50 was < 200 nM.
In the case of `O=C1CCc2cc(Nc3ncc(Cl)c(Nc4ccc5c(c4)CCC(=O)N5)n3)ccc2N1` [Compound 134], the IC50 is reported as < 200 nM.
`COc1cnc(Nc2ccc3c(c2)CCC(=O)N3)nc1Nc1ccc2c(c1)CCC(=O)N2` [Compound 135] was tested, and the IC50 was > 2000 nM.
For `Fc1c(Nc2ncc(C(F)(F)F)c(Nc3ccc4c(c3)OCO4)n2)cccc1C(F)(F)F` [Compound 141a], the IC50 was > 2000 nM.
`Fc1c(Nc2nc(Nc3ccc4c(c3)OCO4)ncc2C(F)(F)F)cccc1C(F)(F)F` [Compound 141b] was tested, and the IC50 was < 200 nM.
In the case of `COc1cccc(Nc2nc(Nc3ccc4c(c3)CCC(=O)N4)ncc2Br)c1` [Compound 142], the IC50 is reported as < 200 nM.
In the case of `COc1cccc(Nc2nc(Nc3ccc4c(c3)CCC(=O)N4)ncc2Cl)c1` [Compound 143a], the IC50 is reported as < 200 nM.
With `COc1cccc(Nc2ncc(Cl)c(Nc3cccc(OC)c3)n2)c1` [Compound 143b] the IC50 was < 200 nM.
`O=C1CCc2cc(Nc3ncc(C(F)(F)F)c(NC4CCC4)n3)ccc2N1` [Compound 150a] was tested, and the IC50 was < 200 nM.
In the case of `O=C1CCc2cc(Nc3nc(NC4CCC4)ncc3C(F)(F)F)ccc2N1` [Compound 150b], the IC50 is reported as < 200 nM.
With `COCCNc1nc(Nc2ccc3c(c2)CCC(=O)N3)ncc1C(F)(F)F` [Compound 151a] the IC50 was < 200 nM.
With `COCCNc1ncc(C(F)(F)F)c(Nc2ccc3c(c2)CCC(=O)N3)n1` [Compound 151b] the IC50 was < 200 nM.
In the case of `FC(F)(F)c1cnc(Nc2cnc3[nH]ccc3c2)nc1NC1CC1` [Compound 152a], the IC50 is reported as < 200 nM.
In the case of `CS(=O)(=O)c1cccc(CNc2nc(Nc3ccc4[nH]ccc4c3)ncc2Br)c1` [Compound 153], the IC50 is reported as > 2000 nM.
In the case of `Brc1cnc(Nc2ccc3[nH]ccc3c2)nc1Nc1ccccn1` [Compound 154], the IC50 is reported as < 200 nM.
With `O=C1CCc2cc(Nc3ncc(Br)c(Nc4ccccn4)n3)ccc2N1` [Compound 155] the IC50 was < 200 nM.
With `COc1ccc(Nc2nc(Nc3ccc4c(c3)CCC(=O)N4)ncc2Br)cn1` [Compound 156] the IC50 was < 200 nM.
For `FC(F)(F)c1cnc(Nc2ccc3c(c2)OCCO3)nc1NC1CC1` [Compound 158a], the IC50 was < 200 nM.
For `FC(F)(F)c1cnc(NC2CC2)nc1Nc1ccc2c(c1)OCCO2` [Compound 158b], the IC50 was < 200 nM.
`O=C1CCc2cc(Nc3ncc(Br)c(NC4CC4)n3)ccc2N1` [Compound 159] was tested, and the IC50 was < 200 nM.
`O=C1CCc2cc(Nc3ncc(C(F)(F)F)c(NC4CCCC4)n3)ccc2N1` [Compound 160a] was tested, and the IC50 was < 200 nM.
`FC(F)(F)c1cnc(Nc2cnc3[nH]ccc3c2)nc1NC1CCC1` [Compound 161a] was tested, and the IC50 was < 200 nM.
`FC(F)(F)c1cnc(NC2CCC2)nc1Nc1cnc2[nH]ccc2c1` [Compound 161b] was tested, and the IC50 was < 200 nM.
In the case of `FC(F)(F)c1cnc(NC2Cc3ccccc3C2)nc1Nc1ccc2c(c1)OCO2` [Compound 163a], the IC50 is reported as > 2000 nM.
In the case of `FC(F)(F)c1cnc(Nc2ccc3c(c2)OCO3)nc1NC1Cc2ccccc2C1` [Compound 163b], the IC50 is reported as > 2000 nM.
In the case of `FC(F)(F)c1cnc(N2CCCC2)nc1Nc1ccc2c(c1)OCO2` [Compound 164a], the IC50 is reported as > 2000 nM.
For `FC(F)(F)c1cnc(N2CCC2)nc1Nc1ccc2c(c1)OCO2` [Compound 166a], the IC50 was > 2000 nM.
For `FC(F)(F)c1cnc(Nc2ccc3c(c2)OCO3)nc1N1CCC1` [Compound 166b], the IC50 was < 200 nM.
In the case of `FC(F)(F)c1cnc(NCC2CC2)nc1Nc1ccc2c(c1)OCO2` [Compound 167a], the IC50 is reported as < 200 nM.
`FC(F)(F)c1cnc(Nc2ccc3c(c2)OCO3)nc1NCC1CC1` [Compound 167b] was tested, and the IC50 was < 200 nM.
`FC(F)(F)c1cnc(NC2CCC2)nc1Nc1ccc2c(c1)OCO2` [Compound 168a] was tested, and the IC50 was < 200 nM.
In the case of `FC(F)(F)c1cnc(NC2CC2)nc1NC1CC1` [Compound 169], the IC50 is reported as > 2000 nM.
With `CNC(=O)c1ccccc1Oc1nc(Nc2cc(OC)ccc2C)ncc1Br` [Compound 170] the IC50 was > 2000 nM.
`COc1cc(Nc2ncc(Br)c(N(C)C(=O)c3ccccc3O)n2)cc(OC)c1OC` [Compound 171b] was tested, and the IC50 was < 200 nM.
For `CCCCOc1nc(Nc2cc(OC)c(OC)c(OC)c2)ncc1Br` [Compound 173], the IC50 was < 200 nM.
In the case of `Brc1cnc(Nc2cnc3[nH]ccc3c2)nc1NC1CC1` [Compound 174], the IC50 is reported as < 200 nM.
For `O=C1CCc2cc(Nc3ncc(C(F)(F)F)c(OC4CCC4)n3)ccc2N1` [Compound 175], the IC50 was < 200 nM.
In the case of `FC(F)(F)c1cnc(Nc2cnc3[nH]ccc3c2)nc1Nc1ccc2c(c1)OCO2` [Compound 177], the IC50 is reported as < 200 nM.
In the case of `O=C1CCc2cc(Nc3ncc(C(F)(F)F)c(Nc4ccc5c(c4)OC(F)(F)O5)n3)ccc2N1` [Compound 178a], the IC50 is reported as < 200 nM.
In the case of `O=C1CCc2cc(Nc3nc(Nc4ccc5c(c4)OC(F)(F)O5)ncc3C(F)(F)F)ccc2N1` [Compound 178b], the IC50 is reported as < 200 nM.
In the case of `O=C1CCc2cc(Nc3ncc(C(F)(F)F)c(OC4Cc5ccccc5C4)n3)ccc2N1` [Compound 180a], the IC50 is reported as < 200 nM.
With `O=C1CCc2cc(Nc3nc(OC4Cc5ccccc5C4)ncc3C(F)(F)F)ccc2N1` [Compound 180b] the IC50 was > 2000 nM.
For `FC(F)(F)c1cnc(Nc2cnc3[nH]ccc3c2)nc1Nc1ccccc1` [Compound 181a], the IC50 was < 200 nM.
In the case of `CNc1nc(Nc2cnc3[nH]ccc3c2)ncc1C(F)(F)F` [Compound 182a], the IC50 is reported as < 200 nM.
`CC1CN1c1nc(Nc2ccc3c(c2)CCC(=O)N3)ncc1C(F)(F)F` (stereo not shown) [Compound 183a] was tested, and the IC50 was > 2000 nM.
